Experimental data published in US10059741B2 (priority 2015, dated 2018).
Like-named read-outs stand apart in the source and are kept apart here. Bridge positions count the residues as written; N and C are the ends. Square brackets hold non-standard residues; d marks the D form. Peptide text beside a SMILES is read from it. R8 = C=CCCCCCC[C@@](C)(N)C(=O)O; S5 = C=CCCC[C@](C)(N)C(=O)O; Nle = CCCC[C@H](N)C(=O)O; Aib = CC(C)(N)C(=O)O

Tests used:
H1N1 California/07/2009 [1] = assay: microbe, parasite or virus in culture; assay type: cell-based, influenza A virus
H3N2 Perth/16/2009 [2] = assay: microbe, parasite or virus in culture; assay type: cell-based, influenza A virus
H1N1 California/07/2009 [3] = assay: microbe, parasite or virus in culture; assay type: cell-based, influenza A virus; conditions: for EC90: Drug Assay Visual/Neutral Red
H3N2 Perth/16/2009 [4] = assay: microbe, parasite or virus in culture; assay type: cell-based, influenza A virus; conditions: for EC90: Influenza A H3N2 Perth/16/2009, Drug Assay Visual/Neutral Red
[5] = test system: H1N1 A/Solomon Island/03/2006; assay type: cell-based, influenza A virus; conditions: Influenza A H1N1 A/Solomon Is./3/2006-M; Drug Assay Neutral Red; read-out: EC50
[6] = test system: H5N1 A/Hong Kong/213/2003; assay: microbe, parasite or virus in culture; assay type: cell-based, influenza A virus; conditions: read-out: EC50
H7N9 A/Anhui/1/2013 = assay: microbe, parasite or virus in culture; assay type: cell-based, influenza A virus; conditions: read-out: EC50
[7] = test system: influenza virus, various viral strains; assay: organism not typed; assay type: cell-based; conditions: Influenza A H1N1 A/Solomon Is./3/2006-M; Drug Assay Visual; read-out: EC50
in vitro = conditions: dog
[8] = Cytopathic effect/toxicity (Visual), MDCK cells, read-out: EC50 (μM) H1N1 California/07/2009
[9] = Influenza A H1N1 California/07/2009, Drug Assay Visual, read-out: EC50
[10] = Cytopathic effect/toxicity (Visual), MDCK cells, read-out: EC50 (μM) H3N2 Perth/16/2009
[11] = Influenza A H3N2 Perth/16/2006 (so in the source), Drug Assay Visual, read-out: EC50
[12] = Cytopathic effect/toxicity (Neutral red), MDCK cells, read-out: EC50 (μM) H1N1 California/07/2009
[13] = Influenza A H1N1 California/07/20/09 (so in the source), later run, Drug Assay Neutral Red, read-out: EC50
[14] = Influenza A H1N1 California/07/20/09 (so in the source)
[15] = Influenza A H1N1 California/07/2009, Drug Assay Neutral Red, read-out: EC50
[16] = Cytopathic effect/toxicity (Neutral red), MDCK cells, read-out: EC50 (μM) H3N2 Perth/16/2009
[17] = Influenza A H3N2 Perth/16/2006 (so in the source), Drug Assay Neutral Red, read-out: EC50
[18] = Influenza A H3N2 Perth/16/2009, last run, Drug Assay Neutral Red, read-out: EC50
[19] = CC50 (μM) H1N1 California/07/2009, Cell cytotoxicity (CC), run with H1N1 California/07/2009
[20] = CC50 (μM) H3N2 Perth/16/2009, Cell cytotoxicity (CC), run with H3N2 Perth/16/2009
[21] = CC50, run with Influenza A H1N1 A/Solomon Is./3/2006-M, Neutral Red
[22] = CC50, run with Influenza A H1N1 A/Solomon Is./3/2006-M, Visual
[23] = CC50, run with Influenza A H1N1 California/07/20/09 (so in the source), later run, Neutral Red
[24] = CC50, run with Influenza A H1N1 California/07/20/09 (so in the source), Visual/Neutral Red
[25] = CC50, run with Influenza A H1N1 California/07/2009, Neutral Red
[26] = CC50, run with Influenza A H1N1 California/07/2009, Visual
[27] = CC50, run with Influenza A H3N2 Perth/16/2006 (so in the source), Neutral Red
[28] = CC50, run with Influenza A H3N2 Perth/16/2006 (so in the source), Visual
[29] = CC50, run with Influenza A H3N2 Perth/16/2009, last run, Neutral Red
[30] = CC50, run with Influenza A H3N2 Perth/16/2009, Visual/Neutral Red

Compound	EC50 (H1N1 California/07/2009 [1]; [8])	EC50 (H1N1 California/07/2009 [1]; [9])	EC50 (H3N2 Perth/16/2009 [2]; [10])	EC50 (H3N2 Perth/16/2009 [2]; [11])	EC50 (H1N1 California/07/2009 [3]; [12])	EC50 (H1N1 California/07/2009 [3]; [13])	EC90 (H1N1 California/07/2009 [3]; [14])	EC50 (H1N1 California/07/2009 [3]; [15])	EC50 (H3N2 Perth/16/2009 [4]; [16])	EC50 (H3N2 Perth/16/2009 [4]; [17])	EC50 (H3N2 Perth/16/2009 [4]; [18])	EC90 (H3N2 Perth/16/2009 [4])	EC50 [5]	EC50 [6]	EC50 (H7N9 A/Anhui/1/2013)	EC50 [7]	CC50 (in vitro; CC50)	CC50 (in vitro; [19])	CC50 (in vitro; [20])	CC50 (in vitro; [21])	further results
CCCC[C@H](NC(C)=O)C(=O)N[C@@H](CC(=O)O)C(=O)N[C@H](C(=O)N[C@@H](CC(N)=O)C(=O)N[C@]1(C)CCCCCCC=CCCC[C@@](C)(C(=O)N[C@@H](CCC(N)=O)C(=O)N[C@@H](C)C(=O)N[C@@H](C)C(=O)N[C@@H](C)C(=O)N[C@@H](C)C(N)=O)NC(=O)[C@H](C)NC(=O)[C@H](CC(C)C)NC(=O)[C@H](Cc2ccccc2)NC(=O)[C@H](CC(C)C)NC(=O)[C@H](CC(C)C)NC(=O)[C@H]([C@@H](C)O)NC1=O)C(C)C [SP-27] (Ac-[Nle]DVN[R8]TLLFLA[S5]QAAAA-NH2; staple 5-12)	< 1.5 µM	0.57 µM	< 1.5 µM	0.32 µM	< 1.5 µM	8.7 µM	8 µM	0.44 µM	1.5 to 10 µM	1.7 µM	35 µM	35 µM	75 µM	> 50 µM	9.6 µM	32 µM	> 50 µM	> 100 µM	> 100 µM	> 100 µM	CC50 (in vitro; [22]): > 100 µM; CC50 (in vitro; [23]): > 100 µM; CC50 (in vitro; [24]): > 100 µM; CC50 (in vitro; [25]): > 100 µM; CC50 (in vitro; [26]): > 100 µM; CC50 (in vitro; [27]): > 100 µM; CC50 (in vitro; [28]): > 100 µM; CC50 (in vitro; [29]): > 100 µM; CC50 (in vitro; [30]): > 100 µM
CCCC[C@H](NC(C)=O)C(=O)N[C@@H](CC(=O)O)C(=O)N[C@H](C(=O)N[C@@H](CC(N)=O)C(=O)N[C@@]1(C)CCCC=CCCC[C@@](C)(C(=O)N[C@@H](CC(C)C)C(=O)N[C@@H](C)C(=O)N[C@H](C(=O)N[C@@H](CCC(N)=O)C(=O)NC(C)(C)C(=O)N[C@@H](C)C(=O)N[C@@H](C)C(=O)N[C@@H](C)C(N)=O)C(C)C)NC(=O)[C@H](CC(C)C)NC(=O)[C@H](CC(C)C)NC(=O)[C@H]([C@@H](C)O)NC1=O)C(C)C [SP-21] (Ac-[Nle]DVN[S5]TLL[S5]LAVQ[Aib]AAA-NH2; staple 5-9)	< 1.5 µM	1.3 µM	< 1.5 µM	0.54 µM	1.5 to 10 µM	21 µM	9.6 µM	4.6 µM	1.5 to 10 µM	2.1 µM	4.8 µM	8 µM	5.3 µM	39 µM	17 µM	4.8 µM	> 50 µM	> 100 µM	> 100 µM	> 100 µM	CC50 (in vitro; [22]): > 100 µM; CC50 (in vitro; [23]): > 100 µM; CC50 (in vitro; [24]): > 100 µM; CC50 (in vitro; [25]): > 100 µM; CC50 (in vitro; [26]): > 100 µM; CC50 (in vitro; [27]): > 100 µM; CC50 (in vitro; [28]): > 100 µM; CC50 (in vitro; [29]): > 100 µM; CC50 (in vitro; [30]): > 100 µM
